Laboratory results: PMC12704298, “Divergent acetyl-CoA binding modes mediate allosteric inhibition of bacterial hybrid-type malic enzymes” (The Journal of Biological Chemistry, 2025)

Assays:
[1] = biological target: T1, EcMaeB (Escherichia coli, UniProt P76558); experiment: Acetyl-CoA IC50 plot against MaeB activity (spectrophotometric NADPH assay); type: biochemical
T1 construct: His-tag (C); made in house; host or cells: E. coli BL21(DE3)
T1 sequence (P76558 1-759): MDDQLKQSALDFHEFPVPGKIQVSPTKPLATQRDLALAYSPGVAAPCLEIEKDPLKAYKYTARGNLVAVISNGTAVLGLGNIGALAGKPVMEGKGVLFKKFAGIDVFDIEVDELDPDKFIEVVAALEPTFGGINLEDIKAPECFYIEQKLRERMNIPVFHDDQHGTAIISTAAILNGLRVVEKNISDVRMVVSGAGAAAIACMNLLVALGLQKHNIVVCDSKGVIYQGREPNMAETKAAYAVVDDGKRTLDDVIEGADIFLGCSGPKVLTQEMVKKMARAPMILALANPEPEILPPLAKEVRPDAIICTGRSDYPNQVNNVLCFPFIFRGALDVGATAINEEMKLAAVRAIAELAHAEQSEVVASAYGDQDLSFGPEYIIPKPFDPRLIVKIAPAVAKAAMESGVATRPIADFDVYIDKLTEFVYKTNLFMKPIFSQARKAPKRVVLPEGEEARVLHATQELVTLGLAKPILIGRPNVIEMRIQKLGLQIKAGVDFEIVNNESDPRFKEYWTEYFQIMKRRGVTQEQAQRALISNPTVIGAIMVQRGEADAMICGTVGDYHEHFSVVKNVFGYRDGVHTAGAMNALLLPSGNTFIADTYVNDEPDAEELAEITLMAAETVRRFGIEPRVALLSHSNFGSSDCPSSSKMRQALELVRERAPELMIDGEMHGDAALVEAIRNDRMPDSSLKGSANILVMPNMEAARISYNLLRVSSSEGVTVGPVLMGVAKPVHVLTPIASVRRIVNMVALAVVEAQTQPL
Procedure: (§1) Spectrophotometric assays were used to monitor the oxidative decarboxylation of L-malate to pyruvate using a SpectraMax M2, UV-Visible spectrophotometer (Molecular Devices) operated by SoftMax Pro Software with kinetic mode. All assays recorded the Δabsorbance at 340 nm (NADPH) at 30 °C. Assays were initiated by the addition of enzyme to the otherwise complete reaction mixture. […] Acetyl-CoA was tested at 5 μM.
(§2) The IC50 plot for Acetyl-CoA against MaeB activity was obtained by varying acetyl-CoA concentrations. The assay was performed in the standard reaction condition with 100 nM final enzyme concentration. The data were fitted to the four-parameter logistic model: v0=Bottom+Top−Bottom/1+([Acetyl-CoA]/IC50)^h where h means the Hill slope value and “Top” and “Bottom” corresponds to the maximum and minimum v0 of the fitted curve, respectively ([81]). Fitting was performed using Rstudio.

[2] = biological target: BbMaeB-SSB (Bdellovibrio bacteriovorus, UniProt A0A1Z3N8R4); experiment: as above; type: biochemical, Bdellovibrio bacteriovorus strain SSB218315
Procedure: as §1, §2

[3] = biological target: T1, EcMaeB; experiment: Enzyme kinetic parameters (Michaelis-Menten, substrate inhibition, empirical Hill plots); type: biochemical; conditions: EcMaeB; versus malate, not conclusive
Procedure: as §1
(§3) For this substrate inhibition model, x should be fixed. […] The plots shown in Fig. S1F were fitted to the empirical Hill equation: v0=Vmax·[malate]^h/(K0.5h+[malate]^h) where K0.5 indicates the substrate concentration for half-saturation. When h is equal to 1, K0.5 matches Michaelis constant Km.

[4] = biological target: T2, BbMaeB (Bdellovibrio bacteriovorus, UniProt A0A1Z3N8R4); experiment: as above; type: biochemical, Bdellovibrio bacteriovorus strain SSB218315; conditions: versus malate
T2 sequence (A0A1Z3N8R4 1-776): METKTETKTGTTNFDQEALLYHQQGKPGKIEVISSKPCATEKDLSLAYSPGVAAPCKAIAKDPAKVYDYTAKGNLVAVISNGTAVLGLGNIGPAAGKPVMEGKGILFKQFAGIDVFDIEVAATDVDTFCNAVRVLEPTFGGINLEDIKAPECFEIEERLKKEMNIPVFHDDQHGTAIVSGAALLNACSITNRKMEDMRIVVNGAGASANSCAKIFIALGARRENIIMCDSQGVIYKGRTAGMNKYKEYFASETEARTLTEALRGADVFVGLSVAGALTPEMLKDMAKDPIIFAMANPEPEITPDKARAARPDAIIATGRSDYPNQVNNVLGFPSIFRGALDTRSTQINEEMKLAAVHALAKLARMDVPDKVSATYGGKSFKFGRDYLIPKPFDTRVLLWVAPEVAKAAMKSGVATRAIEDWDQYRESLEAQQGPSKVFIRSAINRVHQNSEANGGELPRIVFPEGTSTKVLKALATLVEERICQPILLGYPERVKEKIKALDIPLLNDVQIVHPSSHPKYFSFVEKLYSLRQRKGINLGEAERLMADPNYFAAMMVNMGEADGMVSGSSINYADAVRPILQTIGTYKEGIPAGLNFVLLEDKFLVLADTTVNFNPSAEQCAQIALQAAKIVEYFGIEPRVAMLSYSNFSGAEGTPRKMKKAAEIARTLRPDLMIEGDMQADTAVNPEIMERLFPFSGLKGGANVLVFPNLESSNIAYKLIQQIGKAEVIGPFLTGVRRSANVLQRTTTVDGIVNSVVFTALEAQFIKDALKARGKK
Procedure: as §1, §3

[5] = system: T3, EcMaeB R475A/R482A/Y510A; experiment: %Activity assay with 5 μM acetyl-CoA; type: biochemical, Escherichia coli
T3 construct: His-tag (C); made in house; host or cells: E. coli BL21(DE3)
Procedure: (§4) Spectrophotometric assays were used to monitor the oxidative decarboxylation of L-malate to pyruvate using a SpectraMax M2, UV-Visible spectrophotometer (Molecular Devices) operated by SoftMax Pro Software with kinetic mode. All assays recorded the Δabsorbance at 340 nm (NADPH) at 30 °C. Assays were initiated by the addition of enzyme to the otherwise complete reaction mixture. […] Acetyl-CoA was tested at 5 μM. The results are presented as “%Activity”: a percentage of the measured activity in the presence of effector compared to the measured activity of MaeB under standard reaction conditions.

[6] = system: T4, EcMaeB R475A/R482A; experiment: %Activity assay with 5 μM acetyl-CoA; type: biochemical, Escherichia coli
T4 construct: His-tag (C); made in house; host or cells: E. coli BL21(DE3)
Procedure: as §4

[7] = system: T5, EcMaeB R475A/Y510A; experiment: %Activity assay with 5 μM acetyl-CoA; type: biochemical, Escherichia coli
T5 construct: His-tag (C); made in house; host or cells: E. coli BL21(DE3)
Procedure: as §4

[8] = system: T6, EcMaeB R475A; experiment: %Activity assay with 5 μM acetyl-CoA; type: biochemical, Escherichia coli
T6 construct: His-tag (C); made in house; host or cells: E. coli BL21(DE3)
Procedure: as §4

[9] = system: T7, EcMaeB R482A/Y510A; experiment: %Activity assay with 5 μM acetyl-CoA; type: biochemical, Escherichia coli
T7 construct: His-tag (C); made in house; host or cells: E. coli BL21(DE3)
Procedure: as §4

[10] = system: T8, EcMaeB R482A; experiment: %Activity assay with 5 μM acetyl-CoA; type: biochemical, Escherichia coli
T8 construct: His-tag (C); made in house; host or cells: E. coli BL21(DE3)
Procedure: as §4

[11] = system: T9, EcMaeB WT; experiment: %Activity assay with 5 μM acetyl-CoA; type: biochemical, Escherichia coli
T9 construct: His-tag (C); made in house; host or cells: E. coli BL21(DE3)
Procedure: as §4

[12] = system: T10, EcMaeB Y510A; experiment: %Activity assay with 5 μM acetyl-CoA; type: biochemical, Escherichia coli
T10 construct: His-tag (C); made in house; host or cells: E. coli BL21(DE3)
Procedure: as §4

[13] = system: BbMaeB-HD; parameters: method as in PMID 33623032; conditions: earlier study; cited from earlier work
[14] = system: DME; parameters: method as in PMID 10407149; conditions: cited from earlier work
[15] = system: TME; parameters: method as in PMID 10407149; conditions: cited from earlier work
[16] = system: AbMaeB1; parameters: method as in PMID 32485238; conditions: AbMaeB1, compared to EcMaeB and BbMaeB; cited from earlier work
[17] = 5 mM L-malate, 0.5 mM NADP+, 1 μM enzyme
[18] = relative to WT without acetyl-CoA

Q: What does the source list for `CC(=O)SCCNC(=O)CCNC(=O)[C@H](O)C(C)(C)COP(=O)(O)OP(=O)(O)OC[C@H]1O[C@@H](n2cnc3c(N)ncnc32)[C@H](O)[C@@H]1OP(=O)(O)O` [acetyl-CoA, acetyl coenzyme A]?
A: Hill slope factor derived from the IC50 curve [1]: greater than one; IC50 ([1]; 5 mM L-malate, 0.5 mM NADP+, 5 mM MgCl2, 100 nM enzyme, 30 °C): 102000 ± 4920 nM; Hill slope factor derived from the IC50 curve ([2]; BbMaeB): greater than one; IC50 ([2]; BbMaeB-SSB, 5 mM L-malate, 0.5 mM NADP+, 5 mM MgCl2, 100 nM enzyme, 30 °C): 131 ± 4 nM; mode of inhibition [3]: may follow a non-competitive mode; mode of inhibition [4]: non-competitive; effect of acetyl-CoA on activity [5]: did not change their activity; NADP^+ production, With Acetyl-CoA [5, 17]: 10.3 ± 0.4 µM/min; Activity (%), With Acetyl-CoA [5, 18]: 39.5 ± 1.4%; effect of acetyl-CoA on activity [6]: did not change their activity; NADP^+ production, With Acetyl-CoA [6, 17]: 10.7 ± 0.5 µM/min; Activity (%), With Acetyl-CoA [6, 18]: 40.8 ± 2.0%; NADP^+ production, With Acetyl-CoA [7, 17]: 31.9 ± 2.0 µM/min; Activity (%), With Acetyl-CoA [7, 18]: 121.9 ± 7.6%; effect of acetyl-CoA on activity [8]: insensitive to allosteric inhibition; NADP^+ production, With Acetyl-CoA [8, 17]: 21.6 ± 3.7 µM/min; Activity (%), With Acetyl-CoA [8, 18]: 82.4 ± 14.0%; effect of acetyl-CoA on activity [9]: did not change their activity; NADP^+ production, With Acetyl-CoA [9, 17]: 7.0 ± 0.1 µM/min; Activity (%), With Acetyl-CoA [9, 18]: 26.7 ± 0.5%; effect of acetyl-CoA on activity [10]: did not change their activity; NADP^+ production, With Acetyl-CoA [10, 17]: 8.4 ± 1.4 µM/min; Activity (%), With Acetyl-CoA [10, 18]: 32.3 ± 5.5%; effect of acetyl-CoA on activity [11]: reduced the activity by about half; NADP^+ production, With Acetyl-CoA [11, 17]: 12.1 ± 2.2 µM/min; Activity (%), With Acetyl-CoA [11, 18]: 46.4 ± 8.5%; effect of acetyl-CoA on activity [12]: insensitive to allosteric inhibition; NADP^+ production, With Acetyl-CoA [12, 17]: 19.4 ± 4.0 µM/min; Activity (%), With Acetyl-CoA [12, 18]: 74.0 ± 15.4%; IC50 [13]: 453 ± 19 nM; effect on DME activity [14]: inhibited; allosteric regulation of TME [15]: does not show any allosteric regulation; allosteric inhibition of AbMaeB1 [16]: requires higher concentrated acetyl-CoA to show allosteric inhibition
